Reference: PubChem BioAssay (NCI)
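Results reflect a 48-hour exposure of cells in 96-well plates to compound at five concentrations. Abbreviation: GI50, concentration required for 50% inhibition of growth. The concentration for full growth arrest is given as TGI.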

Key:
Test in all cases: NCI anticancer screen, dose series, 48 h
[1] = test system: UACC-62 melanoma
[2] = test system: TK-10 renal
[3] = test system: OVCAR-8 ovarian
[4] = test system: CCRF-CEM leukemia
[5] = test system: NCI/ADR-RES ovarian
[6] = test system: RPMI-8226 leukemia
[7] = test system: OVCAR-4 ovarian
[8] = test system: HL-60(TB) leukemia
[9] = test system: MDA-MB-435
[10] = test system: NCI-H23 lung
[11] = test system: K-562 leukemia
[12] = test system: SK-MEL-5 melanoma
[13] = test system: MOLT-4 leukemia
[14] = test system: PC-3 prostate
[15] = test system: HCT-116 colon
[16] = test system: ACHN renal
[17] = test system: SR leukemia
[18] = test system: CAKI-1 renal
[19] = test system: SN12C renal
[20] = test system: UACC-257 melanoma
[21] = test system: HCT-15 colon
[22] = test system: UO-31 renal
[23] = test system: HOP-92 NSCLC
[24] = test system: MDA-MB-231 breast
[25] = test system: IGROV1 ovarian
[26] = test system: BT-549 breast
[27] = test system: HOP-62 NSCLC
[28] = test system: DU-145 prostate
[29] = test system: SK-OV-3 ovarian
[30] = test system: LOX IMVI melanoma
[31] = test system: OVCAR-3 ovarian
[32] = test system: MALME-3M melanoma
[33] = test system: HT29 colon
[34] = test system: KM12 colon
[35] = test system: SW-620 colon
[36] = test system: A498 renal
[37] = test system: SK-MEL-2 melanoma
[38] = test system: NCI-H226 lung
[39] = test system: HCC-2998 colon
[40] = test system: MCF7 breast
[41] = test system: 786-0 renal
[42] = test system: SF-539 CNS
[43] = test system: M14 melanoma
[44] = test system: SF-268 CNS
[45] = test system: A549 NSCLC
[46] = test system: SK-MEL-28 melanoma
[47] = test system: COLO 205 colon
[48] = test system: SNB-75 CNS
[49] = test system: T-47D breast
[50] = test system: RXF 393 renal
[51] = test system: OVCAR-5 ovarian
[52] = test system: EKVX NSCLC
[53] = test system: NCI-H460 lung
[54] = test system: HS 578T breast
[55] = test system: SNB-19 CNS
[56] = test system: U251 CNS
[57] = test system: NCI-H522 lung

O=C1NC(=O)c2c1c1c3ccccc3ccc1c1[nH]c3ccc(Br)cc3c21
GI50 [1]: 1.91 µM
TGI [1]: 3.87 µM
GI50 [2]: 2.45 µM
TGI [2]: > 100 µM
GI50 [3]: 2.33 µM
TGI [3]: > 100 µM
GI50 [4]: 1.22 µM
TGI [4]: > 100 µM
GI50 [5]: 1.53 µM
TGI [5]: 5.63 µM
GI50 [6]: 0.501 µM
TGI [6]: 2.87 µM
GI50 [7]: 1.74 µM
TGI [7]: 4.85 µM
GI50 [8]: 1.75 µM
TGI [8]: 6.29 µM
GI50 [9]: 1.66 µM
TGI [9]: 3.74 µM
GI50 [10]: 1.46 µM
TGI [10]: 4.48 µM
GI50 [11]: 0.789 µM
TGI [11]: > 100 µM
GI50 [12]: 1.56 µM
TGI [12]: 2.94 µM
GI50 [13]: 1.19 µM
TGI [13]: 4.03 µM

NCCCn1c2c(c3ccc([N+](=O)[O-])cc3c1=O)C(=O)c1cc3c(cc1-2)OCO3
GI50 [14]: 1.17 µM
TGI [14]: 3.56 µM
GI50 [1]: 0.0288 µM
TGI [1]: 1.65 µM
GI50 [15]: > 100 µM
TGI [15]: > 100 µM
GI50 [16]: < 0.01 µM
GI50 [2]: 1.83 µM
TGI [2]: 4.98 µM
GI50 [17]: 0.0225 µM
TGI [17]: > 100 µM
GI50 [18]: < 0.01 µM
TGI [18]: 0.491 µM
GI50 [19]: < 0.01 µM
TGI [19]: 0.385 µM
GI50 [3]: 0.106 µM
TGI [3]: 0.402 µM
GI50 [20]: 0.372 µM
TGI [20]: 3 µM
GI50 [4]: 0.0164 µM
TGI [4]: > 100 µM
GI50 [21]: 0.0282 µM
TGI [21]: 0.201 µM
GI50 [22]: < 0.01 µM
TGI [22]: 0.2 µM
GI50 [23]: 2.6 µM
TGI [23]: 11.1 µM
GI50 [6]: < 0.017 µM
TGI [6]: 2.14 µM
GI50 [24]: 0.44 µM
TGI [24]: 0.935 µM
GI50 [8]: < 0.0155 µM
GI50 [9]: 0.592 µM
TGI [9]: 3.28 µM
GI50 [25]: 0.478 µM
TGI [25]: > 100 µM
GI50 [26]: 0.164 µM
TGI [26]: 1.76 µM
GI50 [10]: 0.0228 µM
TGI [10]: 1.14 µM
GI50 [11]: 0.0581 µM
GI50 [27]: 1.43 µM
TGI [27]: > 100 µM
GI50 [28]: < 0.01 µM
TGI [28]: 1.48 µM
GI50 [29]: 0.32 µM
GI50 [30]: < 0.01 µM
TGI [30]: 0.121 µM
GI50 [12]: 0.0273 µM
TGI [12]: 0.247 µM
GI50 [31]: 0.886 µM
TGI [31]: 3.21 µM
GI50 [13]: < 0.01 µM
TGI [13]: > 100 µM
GI50 [32]: 0.488 µM
TGI [32]: 2.82 µM
GI50 [33]: 0.148 µM
TGI [33]: > 100 µM
GI50 [34]: 0.321 µM
TGI [34]: 4.42 µM

Cc1cc(N(CCCNc2ccnc3cc(Cl)ccc23)Cc2cccs2)nc(Cl)n1
GI50 [35]: 3.45 µM
TGI [35]: 18.9 µM
GI50 [36]: 2.16 µM
TGI [36]: 11.7 µM
GI50 [37]: 12.3 µM
TGI [37]: 29.6 µM
GI50 [14]: 3.32 µM
TGI [14]: 22.9 µM
GI50 [1]: 5.15 µM
TGI [1]: 21 µM
GI50 [38]: 10.2 µM
TGI [38]: 31.1 µM
GI50 [15]: 1.08 µM
TGI [15]: 12.8 µM
GI50 [16]: 5.12 µM
TGI [16]: 19.7 µM
GI50 [39]: 4.05 µM
TGI [39]: 17.8 µM
GI50 [40]: 3.06 µM
TGI [40]: 17.1 µM
GI50 [2]: 5.96 µM
TGI [2]: 20.9 µM
GI50 [19]: 5.91 µM
TGI [19]: 23.9 µM
GI50 [41]: 5.48 µM
TGI [41]: 20.6 µM
GI50 [42]: 7.02 µM
TGI [42]: 23.1 µM
GI50 [43]: 1.81 µM
TGI [43]: 4.54 µM
GI50 [44]: 10.5 µM
TGI [44]: 29.7 µM
GI50 [3]: 4.83 µM
TGI [3]: 34.9 µM
GI50 [20]: 3.04 µM
TGI [20]: 11.1 µM
GI50 [45]: 7.11 µM
TGI [45]: 23.1 µM
GI50 [4]: 5.57 µM
TGI [4]: > 100 µM
GI50 [21]: 2.45 µM
TGI [21]: 12.8 µM
GI50 [46]: 4.87 µM
TGI [46]: 19 µM
GI50 [22]: 0.986 µM
TGI [22]: 7.73 µM
GI50 [5]: 2.64 µM
TGI [5]: 28.5 µM
GI50 [47]: 2.24 µM
TGI [47]: 7.8 µM
GI50 [23]: 2.63 µM
TGI [23]: 20 µM
GI50 [6]: 1.43 µM
TGI [6]: 9.71 µM
GI50 [48]: 2.82 µM
TGI [48]: 18 µM
GI50 [7]: 1.69 µM
TGI [7]: 14.6 µM
GI50 [24]: 3.36 µM
TGI [24]: 17.3 µM
GI50 [49]: 1.99 µM
TGI [49]: 20.6 µM
GI50 [9]: 4 µM
TGI [9]: 15.8 µM
GI50 [50]: 4.46 µM
TGI [50]: 21.7 µM
GI50 [25]: 2.9 µM
TGI [25]: 18.9 µM
GI50 [26]: 3.69 µM
TGI [26]: 15.7 µM
GI50 [10]: 1.3 µM
TGI [10]: 16.7 µM
GI50 [51]: 5.9 µM
TGI [51]: 24.3 µM
GI50 [11]: 0.743 µM
TGI [11]: 12.2 µM
GI50 [27]: 11.8 µM
TGI [27]: 29.6 µM
GI50 [52]: 3.72 µM
TGI [52]: 27.2 µM
GI50 [28]: 7.9 µM
TGI [28]: 23.1 µM
GI50 [53]: 4.03 µM
TGI [53]: 18.3 µM
GI50 [29]: 7.05 µM
TGI [29]: 22.1 µM
GI50 [30]: 2.79 µM
TGI [30]: 11.7 µM
GI50 [54]: 9.29 µM
TGI [54]: 41.5 µM
GI50 [55]: 7.58 µM
TGI [55]: 25.4 µM
GI50 [12]: 1.45 µM
TGI [12]: 3.15 µM
GI50 [31]: 6.43 µM
TGI [31]: 21.4 µM
GI50 [56]: 6.75 µM
TGI [56]: 22.2 µM
GI50 [13]: 2.72 µM
TGI [13]: 22.9 µM
GI50 [32]: 3.06 µM
TGI [32]: 13.5 µM
GI50 [33]: 1.51 µM
TGI [33]: 12.4 µM
GI50 [34]: 4.16 µM
TGI [34]: 17 µM
GI50 [57]: 2.9 µM
TGI [57]: 18.7 µM
